From patent US7030236B2, “Antisense oligonucleotides tarageting folate receptor alpha, and the use thereof” (priority 2001, dated 2006)

What was measured:
Type in all cases: cell-based, human
[1] = tested on: αhFR mRNA; experiment: Northern analysis of αhFR mRNA in KB cells; conditions: oligonucleotide treatment over night
Text: Expression of αhFR is known to be elevated in cancer. In particular, increased αhFR expression is found in 90% of human epithelial ovarian malignancies and is associated with a poor disease prognosis. It is possible that over expression of αhFR confers a growth survival advantage in ovarian cancer cells, since folates are involved in numerous cellular processes, including DNA and RNA synthesis.
Northern Analysis. KB cells were maintained over night in growth media containing sense or antisense unmodified DNA oligonucleotides at the indicated concentrations. Total RNA was isolated (Promega, Madison, Wis.) and samples containing 20 μg of total cellular RNA were resolved on a 1% agarose/0.66M formaldehyde/0.023 3-(N-morpholino) propansulfonic acid gel. The RNA's were transferred to a nitrocellulose membrane (Schleicher and Schuell, Portran, Keene, N.H.) and then hybridized to a random ^32P-labeled αhFR cDNA probe as described previously.

[2] = tested on: MDA-MB-231; experiment: XTT cell survival after Tf-liposome-mediated oligonucleotide transfection, MDA-MB-231; conditions: MDA-MB-231, end-modified phosphorothioated oligo, 6 hrs transfection, XTT at 48 hrs
Procedure: (§1) FIGS. 10A–10B: FIGS. 10A and 10B depict the effect of various concentrations of αhFR AS-6 oligonucleotide (A) and S-6 oligonucleotide (B) on survival of cultured human breast cancer cells. End-modified phosphorothioated oligonucleotides were transfected into 2×10^4 cells at the indicated concentrations for 6 hrs using a Tf-liposome-mediated delivery complex. Cell survival was assessed 48 hrs after transfection by XTT assay.
(§2) To determine the effect of αhFR antisense oligonucleotide, on the survival of cultured breast cancer cells, we transfected AS6 oligonucleotide and S6 oligonucleotide at various concentrations via the Tf-liposome-mediated gene delivery system.

[3] = tested on: KB cells; experiment: KB cell viability after oligonucleotide treatment, total protein content by Bradford assay; conditions: compared to S-6 control
Procedure: The effect of AS-6 on the viability of cultured KB cells was evaluated (FIG. 3). […] The decrease in cell viability upon AS-6 treatment correlates well with the decrease in newly synthesized αhFR expression, as determined in FIG. 2B.
Cell Viability Experiments. Stable transfectants of pRc/CMV αhFR-S or pRc/CMV ahFR-AS constructs were achieved by the calcium phosphate method using the Stratagene Eukaryotic Transfection kit (La Jolla, Calif.) and selected in 500 μg/ml G418. Phosphorothioated-modified αhFR sense (S-6) and antisense (AS-6) DNA oligonucleotides were transfected into 6×10^4 KB cells by incubating oligonucleotides in 1 ml of serum-free media for 6 hrs. Transfections were terminated by the addition of 1 ml of serum-containing low-folate media. Total protein content was assessed 36 hours later by Bradford assay (Biorad, Hercules, Calif.).

[4] = tested on: MDA-MB-435; experiment: XTT cell survival after Tf-liposome-mediated oligonucleotide transfection, MDA-MB-435; conditions: MDA-MB-435, end-modified phosphorothioated oligo, 6 hrs transfection, XTT at 48 hrs
Procedure: as §1, §2

[5] = tested on: T47D; experiment: XTT cell survival after Tf-liposome-mediated oligonucleotide transfection, T47D
Procedure: as §1, §2

[6] = tested on: MDA-MB-435 cells; experiment: Chemosensitization to doxorubicin, XTT assay; conditions: 500 nM oligo, doxorubicin 24 hrs after transfection, XTT after 72 hrs
Procedure: FIG. 11: FIG. 11 depicts chemosensitization of MDA-MB-435 breast cancer cells after combination treatment with αhFR AS6 oligonucleotide and doxorubicin. MDA-MB-435 cells were plated at 2×10^4 cells/well and transfected with 500 nM of αhFR AS6 or S6 end-modified phosphorothioated oligonucleotide. After 24 hrs, cells were incubated with media containing doxorubicin at the indicated concentrations. Cell survival was determined by XTT assay after 72 hrs.
To determine whether or not αhFR antisense oligonucleotide sensitizes breast cancer cells to chemotherapy, the following experiment was carried out. 500 nM of AS6 oligonucleotide or S6 oligonucleotide was transfected into MDA-MB-435 cells and treated with varying concentrations of doxorubicin, twenty-four hours after transfection. Cell survival was determined after 72 hrs by XTT assay and the degree of sensitization was calculating by determining the ratio of IC50 values of the combined treatment relative to that of the S6 oligonucleotide and untreated controls. In FIG. 11, chemosensitization of MDA-MD-435 cells by AS6 oligonucleotide was about 5 fold (IC50 S6/IC50 AS6=5) relative to the sense control and about 10 fold (IC50 UT/IC50 AS6=10) relative to the untreated control.

[7] = tested on: KB cells; experiment: KB cell viability after cytofectin transfection of ribozymes, Cell Counting Kit-8 colorimetric assay
Procedure: The viability of KB cells transfected with wild type or control mutant and sense ribozymes was assessed by colormetric assay. […] (FIG. 6A). […] Approximately 75% of the initial transfected ribozyme amounts disappeared after 1 hour. The quick half-life of ribozyme integrity may explain the unexpected lowered effect of αhFR ribozymes versus antisense oligonucleotides on KB cell survival.
In vitro synthesized wild type, mutant or sense-oriented ribozymes were transfected into 6×10^4 KB cells with cytofectin (Glen Research, Rockville, Md.), according to manufacturers instruction. Transfections were terminated by replacing media with 1 ml of serum-containing low-folate media. Cell viability was quantitated after 36 hours by the Cell Counting Kit-8 (Dojindo, Gaithersburg, Md.). For ribozyme decay analysis, in vitro synthesized ribozymes were radiolabeled with [α-^32P]-rCTP and rGTP using the riboprobe kit (Promega, Madison, Wis.). Radiolabeld ribozymes were transfected by the cytofectin method as described above. Total RNA was extracted at the indicated time points using the RNeasy mini kit (Quiagen, Valencia, Calif.), fractionated on a 6% sequencing gel and visualized by autoradiography. Amounts of intact internalized ^32P-labeled ribozyme were determined using the NIH image software.

AS-1: antisense 21-mer DNA TGTTGTCATCCGCTGAGCCAT, αhFR open reading frame 21–1, SEQ ID NO. 2 (antisense TGTTGTCATCCGCTGAGCCAT; unmodified DNA)
αhFR mRNA by Northern analysis [1]: remained unaffected

AS-2: antisense 21-mer DNA AGGAGGTCAGCTGAGCAGCCA, αhFR open reading frame 780–760, SEQ ID NO. 3 (antisense AGGAGGTCAGCTGAGCAGCCA; unmodified DNA)
αhFR mRNA by Northern analysis [1]: remained unaffected

AS-6: antisense 21-mer DNA GCTCTTGCAGGTGTAGGAGGT, αhFR ORF 462–442, SEQ ID NO. 4; unmodified or phosphorothioated (antisense GCTCTTGCAGGTGTAGGAGGT; DNA, backbone and methylation of C not given here; phosphorothioate modified, described as end-modified)
IC50 [2]: 600 nM
decrease in overall protein content ([3]; 10 μM phosphorothioate-modified oligo): 20%
decrease in overall protein content ([3]; 50 μM phosphorothioate-modified oligo): 60%
IC50 [4]: 416 nM
αhFR mRNA by Northern analysis [1]: remained unaffected
IC50 ([5]; T47D, end-modified phosphorothioated oligo, 6 hrs transfection, XTT at 48 hrs): 633 nM
chemosensitization to doxorubicin, IC50 S6/IC50 AS6 ([6]; relative to sense control): about 5 fold
chemosensitization to doxorubicin, IC50 UT/IC50 AS6 ([6]; relative to untreated control): about 10 fold

S6: sense control 21-mer ACCTCCTACACCTGCAAGAGC, 442–462 (sense ACCTCCTACACCTGCAAGAGC; DNA, backbone and methylation of C not given here; S-6 used both unmodified and phosphorothioate-modified, form not tied to measurement, further chemistry not fully specified) [reference compound]
effect on survival of model breast cancer cell lines ([5]; stated for the breast cancer cell lines together (T47D, MDA-MB-231, MDA-MB-435), versus AS6): significantly less effect

B1: Rz 187/210 WT: wild type hammerhead ribozyme targeted to 5′ region of αhFR open reading frame; encoding DNA in Table II (nucleic acid)
DNA 1: CCCGTCGACAATGCCTGCTGTTTCGTCCTCACGGACTCATCAGCTACCAACACAAGCTTCCC
DNA 2: GGGCAGCTGTTACGGACGACAAAGCAGGAGTGCCTGAGTAGTCGATGGTTGTGTTCGAAGGG
modifications: target site or template, no part of the molecule; chemistry not given here; one strand is listed 3' to 5'
decrease in cell survival ([7]; KB cells, compared to control mutant and sense ribozymes): approximately 60%

B2: Rz 187/210 MUT: mutant control ribozyme, G in the catalytic structure changed to A (nucleic acid)
DNA 1: CCCGTCGACAATGCCTGCTGTTTCGTCCTCACGGATTCATCAGCTACCAACACAAGCTTCCC
DNA 2: GGGCAGCTGTTACGGACGACAAAGCAGGAGTGCCTAAGTAGTCGATGGTTGTGTTCGAAGGG
modifications: target site or template, no part of the molecule; chemistry not given here; one strand is listed 3' to 5'
notes: mutant control ribozyme, G in the catalytic structure changed to A
effect on cell survival ([7]; KB cells transfected with ribozyme): little, if any effect
